In publication PMC11494505, “Asymmetric Monoreduction of α,β-Dicarbonyls to α-Hydroxy Carbonyls by Ene Reductases” (ACS Catalysis, 2024):
Each block holds one compound with its values, some of them ahead of it.

Columns and labels:
CC(=O)C(=O)c1ccccc1 = test system: T1, CC(=O)C(=O)c1ccccc1; assay: steady-state Michaelis-Menten kinetics; assay type: biochemical, Saccharomyces cerevisiae; details: NADPH as cofactor
T1 construct: wild type, N-terminal His-tag (pET-28a(+)), E. coli BL21 Gold(DE3), IMAC, FMN-loaded

GluER [1] = target: T2, GluER (Gluconobacter oxydans, UniProt Q5FTL6); assay: bioconversion to 2-hydroxyhexan-3-one, chiral GC; assay type: biochemical; details: 10 mM substrate, 5 μM enzyme, 1.1 eq. NADPH, 2% DMSO, pH 7.0, 30 °C, 6 h
T2 construct: gene GOX0502; wild type, N-terminal His-tag (pET-28a(+)), E. coli BL21 Gold(DE3), IMAC, FMN-loaded

PETNR = target: T3, PETNR (Enterobacter cloacae, UniProt P71278); assay: bioconversion to 7b, HPLC; assay type: biochemical; details: 10 mM substrate, 5 μM enzyme, 11 mM NADPH, 2% DMSO, pH 7.0, 30 °C, 6 h
T3 construct: gene onr; recombinant in-house enzyme; details in supplement

TsOYE = target: T4, TsOYE (Thermus scotoductus, UniProt B0JDW3); assay: bioconversion to 7b, HPLC; assay type: biochemical; details: 10 mM substrate, 5 μM enzyme, 11 mM NADPH, 2% DMSO, pH 7.0, 30 °C, 6 h
T4 construct: gene chrR; wild type, pET-28a(+), E. coli BL21 Gold(DE3), N-terminal His-tag, heat purified (70 °C)

YqjM = target: T5, YqjM (Bacillus subtilis, UniProt P54550); assay: bioconversion to 7b, HPLC; assay type: biochemical; details: 10 mM substrate, 5 μM enzyme, 11 mM NADPH, 2% DMSO, pH 7.0, 30 °C, 6 h
T5 construct: gene namA; recombinant, purified; details in supplement

XenA = target: T6, XenA (Pseudomonas putida, UniProt Q9R9V9); assay: bioconversion to 7b, HPLC; assay type: biochemical; details: 10 mM substrate, 5 μM enzyme, 11 mM NADPH, 2% DMSO, pH 7.0, 30 °C, 6 h
T6 construct: recombinant in-house enzyme; details in supplement

EPB1 = target: T7, EPB1 (Candida albicans, UniProt A0A1D8PPK1); assay: bioconversion to 7b, HPLC; assay type: biochemical; details: 10 mM substrate, 5 μM enzyme, 11 mM NADPH, 2% DMSO, pH 7.0, 30 °C, 6 h
T7 construct: gene EBP1; wild type, N-terminal His-tag (pET-28a(+)), E. coli BL21 Gold(DE3); spelled EBP1 in Methods

TOYE = target: T8, TOYE (Thermoanaerobacter pseudethanolicus, UniProt B0KAH1); assay: bioconversion to 7b, HPLC; assay type: biochemical; details: 10 mM substrate, 5 μM enzyme, 11 mM NADPH, 2% DMSO, pH 7.0, 30 °C, 6 h
T8 construct: gene Teth39_0012; recombinant in-house enzyme; details in supplement

GluER [2] = target: T2, GluER; assay: bioconversion to 7b and 7c, HPLC / GC; assay type: biochemical; details: 10 mM substrate, 5 μM enzyme, 1.1 eq. NADPH, 2% DMSO, pH 7.0, 30 °C, 6 h
OYE2 [3] = target: T9, OYE2 (Saccharomyces cerevisiae, UniProt Q03558); assay: bioconversion to 7b, HPLC; assay type: biochemical; details: 10 mM substrate, 5 μM enzyme, 11 mM NADPH, 2% DMSO, pH 7.0, 30 °C, 6 h
T9 construct: wild type, N-terminal His-tag (pET-28a(+)), E. coli BL21 Gold(DE3), IMAC, FMN-loaded

OYE2 [4] = target: T9, OYE2; assay: bioconversion, GC; assay type: biochemical; details: 10 mM substrate, 5 μM enzyme, 11 mM NADPH, 2% DMSO, pH 7.0, 30 °C, 6 h; product detected as 8c by GC

T2 sequence (Q5FTL6 entry or part of it): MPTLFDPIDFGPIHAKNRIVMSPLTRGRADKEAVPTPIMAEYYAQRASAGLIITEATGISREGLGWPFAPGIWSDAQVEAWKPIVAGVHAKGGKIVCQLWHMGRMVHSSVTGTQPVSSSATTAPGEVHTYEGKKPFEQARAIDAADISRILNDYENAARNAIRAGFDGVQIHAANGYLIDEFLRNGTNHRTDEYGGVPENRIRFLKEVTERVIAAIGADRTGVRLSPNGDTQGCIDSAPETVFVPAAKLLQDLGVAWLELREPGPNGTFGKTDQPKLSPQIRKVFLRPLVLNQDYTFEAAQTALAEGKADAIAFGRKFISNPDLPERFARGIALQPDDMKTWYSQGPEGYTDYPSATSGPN
T9 sequence (Q03558 whole entry): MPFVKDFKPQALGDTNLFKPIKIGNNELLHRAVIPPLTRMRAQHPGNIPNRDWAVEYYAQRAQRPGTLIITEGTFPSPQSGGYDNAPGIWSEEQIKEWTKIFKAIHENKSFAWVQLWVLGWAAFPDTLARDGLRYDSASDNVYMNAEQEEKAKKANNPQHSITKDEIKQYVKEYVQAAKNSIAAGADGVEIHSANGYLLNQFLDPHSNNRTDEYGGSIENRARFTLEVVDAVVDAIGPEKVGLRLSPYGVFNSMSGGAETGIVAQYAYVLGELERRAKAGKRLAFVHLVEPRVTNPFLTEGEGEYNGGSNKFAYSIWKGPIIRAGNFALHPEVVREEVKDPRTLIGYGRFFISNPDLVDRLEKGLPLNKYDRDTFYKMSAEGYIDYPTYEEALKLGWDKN
T8 sequence (B0KAH1 entry or part of it): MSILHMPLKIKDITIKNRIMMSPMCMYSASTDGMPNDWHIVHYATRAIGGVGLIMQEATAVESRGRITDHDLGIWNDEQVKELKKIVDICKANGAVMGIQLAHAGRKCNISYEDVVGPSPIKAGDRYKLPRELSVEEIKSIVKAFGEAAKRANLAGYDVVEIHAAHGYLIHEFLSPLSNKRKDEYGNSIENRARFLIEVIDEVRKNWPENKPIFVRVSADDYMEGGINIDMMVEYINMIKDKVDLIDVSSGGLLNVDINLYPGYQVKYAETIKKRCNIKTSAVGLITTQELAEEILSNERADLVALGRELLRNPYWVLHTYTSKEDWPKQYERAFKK
T6 sequence (Q9R9V9 entry or part of it): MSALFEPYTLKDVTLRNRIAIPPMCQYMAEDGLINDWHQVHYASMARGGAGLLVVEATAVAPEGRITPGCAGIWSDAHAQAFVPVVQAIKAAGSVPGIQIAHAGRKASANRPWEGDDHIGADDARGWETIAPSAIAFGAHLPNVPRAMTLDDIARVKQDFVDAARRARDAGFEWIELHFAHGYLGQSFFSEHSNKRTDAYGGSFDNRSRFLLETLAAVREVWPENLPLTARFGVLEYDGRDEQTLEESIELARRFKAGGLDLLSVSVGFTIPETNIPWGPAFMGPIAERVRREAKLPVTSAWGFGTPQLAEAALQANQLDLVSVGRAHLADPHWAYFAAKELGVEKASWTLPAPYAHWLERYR
T5 sequence (P54550 2-338): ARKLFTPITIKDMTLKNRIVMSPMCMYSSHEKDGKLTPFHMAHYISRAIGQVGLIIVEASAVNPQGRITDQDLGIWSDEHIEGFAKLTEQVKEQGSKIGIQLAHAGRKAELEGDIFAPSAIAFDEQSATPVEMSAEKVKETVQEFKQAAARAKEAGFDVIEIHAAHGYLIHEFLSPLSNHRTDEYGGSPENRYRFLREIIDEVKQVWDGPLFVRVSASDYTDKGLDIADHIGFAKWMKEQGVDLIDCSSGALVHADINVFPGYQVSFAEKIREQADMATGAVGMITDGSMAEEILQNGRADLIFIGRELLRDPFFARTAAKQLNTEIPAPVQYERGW
T7 sequence (A0A1D8PPK1 whole entry): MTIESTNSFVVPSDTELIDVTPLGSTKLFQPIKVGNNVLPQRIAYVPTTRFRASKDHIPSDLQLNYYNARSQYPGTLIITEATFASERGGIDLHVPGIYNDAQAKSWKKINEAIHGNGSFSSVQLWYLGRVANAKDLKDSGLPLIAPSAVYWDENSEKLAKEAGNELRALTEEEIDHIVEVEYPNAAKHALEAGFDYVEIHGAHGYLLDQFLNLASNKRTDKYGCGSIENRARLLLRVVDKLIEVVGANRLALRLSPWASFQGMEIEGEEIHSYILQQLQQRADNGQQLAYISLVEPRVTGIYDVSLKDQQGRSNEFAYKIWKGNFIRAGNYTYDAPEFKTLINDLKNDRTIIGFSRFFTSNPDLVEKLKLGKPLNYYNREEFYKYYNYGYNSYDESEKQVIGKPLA
T3 sequence (P71278 entry or part of it): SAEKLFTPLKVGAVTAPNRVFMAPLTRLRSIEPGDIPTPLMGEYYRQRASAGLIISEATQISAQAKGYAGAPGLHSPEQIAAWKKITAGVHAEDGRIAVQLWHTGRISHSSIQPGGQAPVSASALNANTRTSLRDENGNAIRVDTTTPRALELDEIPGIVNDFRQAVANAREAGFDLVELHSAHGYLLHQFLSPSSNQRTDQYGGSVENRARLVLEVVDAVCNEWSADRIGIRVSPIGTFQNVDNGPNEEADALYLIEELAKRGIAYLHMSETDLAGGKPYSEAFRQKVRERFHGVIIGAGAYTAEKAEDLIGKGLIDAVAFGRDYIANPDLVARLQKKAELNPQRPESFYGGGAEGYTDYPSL

Compound: OYE3 (Saccharomyces cerevisiae S288C)
Km (CC(=O)C(=O)c1ccccc1): 2460 ± 250 µM | kcat (CC(=O)C(=O)c1ccccc1): 0.71 ± 0.03 s⁻¹

% conversion (GluER [1]): 19%
Compound: CCCC(=O)C(C)=O [2a, 2,3-hexanedione]

Compound: CC(=O)C(=O)c1ccccc1 [7a, 1-phenyl-1,2-propanedione]
bioconversion to 7b, HPLC (PETNR): Nine of the enzymes produced the single product 7b; class I (PETNR, NCR) | bioconversion to 7b, HPLC (TsOYE): class III (TsOYE, XenA, TOYE, YqjM) | bioconversion to 7b, HPLC (YqjM): class III (TsOYE, XenA, TOYE, YqjM) | bioconversion to 7b, HPLC (XenA): class III (TsOYE, XenA, TOYE, YqjM) | bioconversion to 7b, HPLC (EPB1): class II (OYE3, OYE2, EPB1) | bioconversion to 7b, HPLC (TOYE): class III (TsOYE, XenA, TOYE, YqjM) | bioconversion to 7b and 7c, HPLC / GC (GluER [2]): GluER was the most versatile ERED, able to reduce 1a–5a, 7a, and 8a | bioconversion to 7b, HPLC (OYE2 [3]): Nine of the enzymes produced the single product 7b

Compound: O=CC(=O)c1ccccc1 [8a, phenylglyoxal]
bioconversion, GC (OYE2 [4]): could confirm excellent conversions with 8a
